The text below walks through data of patent US20120065365A1, “Stable Radiopharmaceutical Compositions and Methods for Their Preparation” (BRACCO IMAGING S.P.A., priority 2003, published 2012).

Each structure is given as a SMILES string. Counter-ions that a name gives are not always drawn. Like-named read-outs stand apart in the source and are kept apart here.

For data set [1] the following is noted: ^177Lu-A 50 mCi in 2 mL, room temperature.
Data set [2] in a line: Radiostability (RCP, Met═O by HPLC) of preformed ^177Lu-A with individual amino acids added (Example 1). In kind it is physicochemical. The settings on record: amino acid 6.6 mg/mL, room temperature. How it is done: (§1) The injection volume was 20 μL.
Solutions of the individual amino acids L-Methionine, L-Selenomethionine, L-cysteine HCl.H2O, L-Tryptophan, L-Histidine, and Glycine were prepared at a concentration of 10 mg/mL in 10 mM Dulbecco's phosphate-buffered saline, pH 7.0 [PBS].
The final radioactive concentration of each sample was ˜20 mCi/mL.

Data set [3] is classed as physicochemical. How it is done: The ratio of COMPOUND A to Lutetium was 3:1 for all samples. The reaction mixtures were heated, cooled, treated with Na2EDTA.2H2O and analyzed by HPLC as described in Example 13, and then stored at room temperature for 24 hours, at which time all samples were analyzed again.
Data set [4] is classed as physicochemical. To be noted: ^177Lu-A 13.9 mCi/mL, stabilizer 5 mg/mL added after complex preparation, room temperature. How it is done:
as §1
Compounds containing the —C═S moiety [dithiocarbamates and ethionamide] were examined in this study.
Each individual stabilizer was prepared at a concentration of 10 mg/mL in water. Ethionamide was dissolved in EtOH. […] The reaction mixture was heated to 100° C. for 5 minutes, then cooled for 5 minutes in an ambient-temperature water bath. […] To an aliquot, 100 μL of one of the stabilizer solutions (1 mg of stabilizer) was added. Each aliquot was analyzed (t=0 h) by HPLC (Method 2) and stored at room temperature for 48 hours. All samples were analyzed again at t=24 h and 48 h.

Data set [5] is classed as physicochemical. The settings on record: for RCP % t = 0 h: ^177Lu-A (5.25 mCi avg) prepared in presence of stabilizer ~3.33 mg/mL; for RCP % t = 24 h / RCP % t = 96 h: ^177Lu-A prepared in presence of stabilizer ~3.33 mg/mL, room temperature. The method, then: as §1
Ethionamide was prepared at a 10 mg/mL concentration by dissolving it in EtOH. […] Another sample was prepared to which was added 100 μL of ethanol only (no stabilizer), for use as a control sample. […] The reaction mixture was heated to 100° C. for 5 minutes then cooled for 5 minutes in an ambient-temperature water bath. To each sample, 10 μL of 2% Na2EDTA.2H2O in water was added, and then each was analysed by HPLC (Method 2) and stored at room temperature for up to 96 hours.

Data set [6] is classed as physicochemical. The settings on record: stabilizer 5 mg/mL added after complex preparation; for RCP % t = 0 h: ^177Lu-A (3.34 mCi avg per aliquot), analysed 1-3.5 hrs after preparation; for RCP % t = 24 h: ^177Lu-A, room temperature. How it is done:
In this study, sulfur-containing compounds were tested. Cysteine has been used as an antioxidant for many drugs that contain oxidizable residues.
Solutions of each individual stabilizer (10 mg/mL) were prepared in water. To a lead-shielded 4-mL vial was added 300 μL of NaOAc buffer (0.2M, pH 4.8), 29.0 mCi ^177LuCl3 and 41.4 μg COMPOUND A (dissolved in water). The ratio of COMPOUND A to Lutetium was 3:1. The reaction mixture was heated, cooled, treated with Na2EDTA.2H2O and analyzed by HPLC as described in Example 13. Seven 50-μL aliquots (3.34 mCi ^177Lu avg each) were transferred to individual HPLC vials. To one aliquot, 50 μL of water was added for use as a control sample (no stabilizer). To the other six aliquots, 50 μL of an individual stabilizer solution (0.5 mg of stabilizer) was added, and then each was analyzed by HPLC (Method 2). The control sample, and L-cysteine ethyl ester hydrochloride and L-cysteine methyl ester hydrochloride samples were analyzed again after 24 hours of storage at room temperature.

The format of data set [7] is physicochemical. To be noted: for RCP % t = 0 h: ^177Lu-A (4.80 mCi) prepared in presence of stabilizer 5 mg/mL; for RCP % t = 24 h / RCP % t = 48 h / RCP (%) t = 72 h: ^177Lu-A prepared in presence of stabilizer 5 mg/mL, room temperature. How it is done:
Solutions of L-cysteine ethyl ester hydrochloride and L-cysteine methyl ester hydrochloride (5 mg/mL) were prepared by dissolving them in NaOAc buffer (0.2 M, pH 4.8). To lead-shielded 4-mL vials were added 200 μL of the individual NaOAc-stabilizer solutions, 4.80 mCi ^177LuCl3 and 7.26 μg COMPOUND A (dissolved in water). The ratio of COMPOUND A to Lutetium was 3:1 for all samples. The reaction mixtures were heated, cooled, treated with Na2EDTA.2H2O and analyzed by HPLC as described in Example 13, and then each was stored at room temperature for 72 hours. Each sample was analyzed by HPLC (Method 2) at t=0, 24, 48 and 72 h.

The format of data set [8] is physicochemical. The method, then: The reaction vial was crimp-sealed and heated at 100° C. for 5 min. […] The sample was stored in an autosampler in which the temperature is ˜6° C. […] than room temperature, and analyzed by RP-HPLC for up to 24 hours.
L-Selenomethionine: ^177Lu-B was prepared, diluted and analyzed as described above, but 5 mg of L-Se-Met was used in place of PDTC, the heating time was 10 minutes, and the quantity of radioactivity used was 52 mCi.
L-cysteine ethyl ester, HCl: ^177Lu-B was prepared, diluted and analyzed as described above, but 5 mg of L-CEE, hydrochloride salt was used in place of PDTC, the heating time was 5 minutes and the quantity of radioactivity used was 50 mCi.
L-cysteine HCl.H2O: ^177Lu-B was prepared, diluted and analyzed as described above, but 5 mg of L-Cys HCl.H2O was used in place of PDTC, the heating time was 8 minutes and the quantity of radioactivity used was 53 mCi.
This is another data set of the same source.

`CSCC[C@H](N)C(=O)O` [L-Methionine]: in data set [1] (2.5 mg/mL L-methionine (5 mg), 0 d), the “% RCP 0-d” value turned out to be 96.1%. In addition, the “% RCP 1-d” value in data set [1] (2.5 mg/mL L-methionine, 1 d) was found to be 53.5%. In addition, the “% RCP 2-d” value in data set [1] (2.5 mg/mL L-methionine, 2 d) was 26.9%. Besides, the “% RCP 5-d” value in data set [1] (2.5 mg/mL L-methionine, 5 d) is reported as 0%. For the same molecule, the “0-1 h RCP (%)” value in data set [2] (^177Lu-A ~20 mCi/mL (3.5 mCi total), 0-1 h) was 100%. Besides, the “24-h RCP (%)” value in data set [2] (^177Lu-A ~20 mCi/mL, 24 h) turned out to be 99.3%. The “48-h RCP (%)” value in data set [2] (^177Lu-A ~20 mCi/mL, 48 h) is 94%.

With `CCc1cc(C(N)=S)ccn1` [Ethionamide, 2-Ethyl-4-pyridinecarbothioamide (Ethionamide), reference compound], the “RCP % t = 0 h” value in data set [3] (^177Lu-A (4.65-5.64 mCi) prepared in presence of stabilizer 5 mg/mL, 0 h) was found to be 80.8%. For the same molecule, in data set [3] (^177Lu-A prepared in presence of stabilizer 5 mg/mL, room temperature, 24 h), the “RCP % t = 24 h” value was 77.5%. Further, in data set [4], the “RCP % t = 0 h” value is 97.4%, the “RCP % t = 24 h” value was found to be 97.0% and the “RCP % t = 48 h” value is recorded as 94.7%. Moreover, in data set [5], the “RCP % t = 0 h” value came to 100%, the “RCP % t = 24 h” value is reported as 98.1% and the “RCP % t = 96 h” value was 94.6%.

In the case of `S=c1[nH]c(=S)[nH]c(=S)[nH]1` [Trithiocyanuric acid trisodium salt nonahydrate], in data set [4], the “RCP % t = 0 h” value came to 96.9%, the “RCP % t = 24 h” value is listed as 95.9% and the “RCP % t = 48 h” value came to 100%. For the same molecule, in data set [5], the “RCP % t = 0 h” value was found to be 100%, the “RCP % t = 24 h” value is recorded as 100% and the “RCP % t = 96 h” value turned out to be 0%.

In the case of `Cl.Cl.NCCSSCCN` [Cystamine dihydrochloride], the “RCP % t = 0 h” value in data set [6] turned out to be 66.2%.

As for `CCOC(=O)[C@@H](N)CS` [L-cysteine ethyl ester hydrochloride], in data set [7], the “RCP % t = 0 h” value is 100%, the “RCP % t = 24 h” value was found to be 96.5%, the “RCP % t = 48 h” value was determined as 93.5% and the “RCP (%) t = 72 h” value came out at 87.4%. The “(% RCP) 3-h” value in data set [8] (^177Lu-B (44-53 mCi) formulated with 5 mg stabilizing compound, 3 h) turned out to be 96.9%. In addition, the “(% RCP) 6-h” value in data set [8] (^177Lu-B (44-53 mCi) formulated with 5 mg stabilizing compound, 6 h) was found to be 94.7%. Besides, the “(% RCP) 9-h” value in data set [8] (^177Lu-B (44-53 mCi) formulated with 5 mg stabilizing compound, 9 h) was found to be 92.8%. In addition, the “(% RCP) 12-h” value in data set [8] (^177Lu-B (44-53 mCi) formulated with 5 mg stabilizing compound, 12 h) stood at 92.2%. Also, in data set [8] (^177Lu-B (44-53 mCi) formulated with 5 mg stabilizing compound, 24 h), the “(% RCP) 24-h” value is given as 85.1%. Besides, the “(% RCP) 0-h” value in data set [8] (^177Lu-B (44-53 mCi) formulated with 5 mg stabilizing compound, diluted to ~2 mL, ~6° C. above room temperature, 0 h) was 98.4%. The “RCP Drop over 24 hr” value in data set [8] (^177Lu-B formulated with 5 mg stabilizing compound, 0 to 24 h) stood at 13.3%. In data set [6], the “RCP % t = 0 h” value is 91.5% and the “RCP % t = 24 h” value worked out at 73.2%.

For `COC(=O)[C@@H](N)CS` [L-cysteine methyl ester hydrochloride], in data set [7], the “RCP % t = 0 h” value was 100%, the “RCP % t = 24 h” value came to 97.1%, the “RCP % t = 48 h” value was 93.7% and the “RCP (%) t = 72 h” value came to 87.2%. In addition, in data set [6], the “RCP % t = 0 h” value is 90.4% and the “RCP % t = 24 h” value is given as 74.4%.

`N[C@@H](CS(=O)O)C(=O)O.O` [L-cysteinesulfinic acid monohydrate]: in data set [6], the “RCP % t = 0 h” value amounted to 75.0%.

Consider `CCOC(=O)[C@@H](N)CSSC[C@H](N)C(=O)OCC.Cl.Cl` [L-cysteine diethyl ester dihydrochloride], for which, in data set [6], the “RCP % t = 0 h” value was determined as 61.5%.

In the case of `COC(=O)[C@@H](N)CSSC[C@H](N)C(=O)OC.Cl.Cl`, the “RCP % t = 0 h” value in data set [6] is 70.1%.

As to `CCN(CC)C(=S)S` [Sodium diethyldithiocarbamate trihydrate, Diethyldithiocarbamate sodium salt], in data set [4], the “RCP % t = 0 h” value was 97.8%, the “RCP % t = 24 h” value is recorded as 97.1% and the “RCP % t = 48 h” value is reported as 96.2%. Further, in data set [5], the “RCP % t = 0 h” value is 52.8% and the “RCP % t = 24 h” value amounted to 0%.
